Laboratory results taken from publication PMC2736896 (2009).

Target: bilitranslocase (BTL) homologue
Assay: inhibition of electrogenic BSP uptake into pulp microsomes, spectrophotometric
Type: biochemical, Vitis vinifera

| Structure (SMILES) | Ki [µM] |
| --- | --- |
| O=C1C[C@@H](c2ccc(O)c(O)c2)Oc2cc(O)cc(O)c21 [eriodictyol] | 75.8 |
| O=c1c(O)c(-c2ccc(O)c(O)c2)oc2cc(O)cc(O)c12 [quercetin] | 97.5 |
